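Compound exposure: 48 hours, 5 concentrations, 96-well plates. GI50 = concentration required for 50% inhibition of growth.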 Active and inactive are the calls of the source. Rule as the data show it: active = GI50 up to about 1.1 µM and inactive = higher.
Legend:
Assay in all cases: NCI-60 cell line screen, 48 h
Hs-578T = system: Hs-578T
MDA-MB-435 = system: MDA-MB-435
U-251 = system: U-251
SN12C = system: SN12C
NCI-H226 = system: NCI-H226
EKVX = system: EKVX
UACC-257 = system: UACC-257
SK-MEL-2 = system: SK-MEL-2
CCRF-CEM = system: CCRF-CEM
HCC 2998 = system: HCC 2998
OVCAR-8 = system: OVCAR-8
LOX IMVI = system: LOX IMVI
T47D = system: T47D
SNB-19 = system: SNB-19
NCI-H23 = system: NCI-H23
SR = system: SR
MCF7 = system: MCF7
HOP-92 = system: HOP-92
SF-539 = system: SF-539

Structure (SMILES) | GI50 (Hs-578T) | GI50 (MDA-MB-435) | GI50 (U-251) | GI50 (SN12C) | GI50 (NCI-H226) | GI50 (EKVX) | GI50 (UACC-257) | GI50 (SK-MEL-2) | GI50 (CCRF-CEM) | GI50 (HCC 2998) | GI50 (OVCAR-8) | GI50 (LOX IMVI) | GI50 (T47D) | GI50 (SNB-19) | GI50 (NCI-H23) | GI50 (SR) | GI50 (MCF7) | GI50 (HOP-92) | GI50 (SF-539)
O=c1cnn(C2OC(C(O)CO)C(O)C2O)c(=O)[nH]1 (stereo not drawn) | > 100 µM (inactive) | > 100 µM (inactive) | > 100 µM (inactive) | > 100 µM (inactive) | > 100 µM (inactive) | > 100 µM (inactive) | > 100 µM (inactive) | > 100 µM (inactive) | > 100 µM (inactive) | > 100 µM (inactive) | > 100 µM (inactive) | > 100 µM (inactive) | > 100 µM (inactive) | > 100 µM (inactive) | > 100 µM (inactive) | > 100 µM (inactive) | > 100 µM (inactive) | > 100 µM (inactive) | > 100 µM (inactive)
CCOC(=O)c1cccc([N+](=O)[O-])c1N | 41.2 µM (inactive) | > 100 µM (inactive) | > 100 µM (inactive) | > 100 µM (inactive) | > 100 µM (inactive) | 6.11 µM (inactive) | > 100 µM (inactive) | > 100 µM (inactive) | > 100 µM (inactive) | > 100 µM (inactive) | > 100 µM (inactive) | > 100 µM (inactive) | > 100 µM (inactive) | > 100 µM (inactive) | > 100 µM (inactive) | > 100 µM (inactive) | > 100 µM (inactive) | > 100 µM (inactive) | > 100 µM (inactive)
Cc1c(C#N)c2nnn(-c3ccc([N+](=O)[O-])cc3)c(=O)n2c1-c1ccccc1 | 25.5 µM (inactive) | 13 µM (inactive) | 4.26 µM (inactive) | 11.5 µM (inactive) | 12.6 µM (inactive) | 8.89 µM (inactive) | 16.9 µM (inactive) | 9.57 µM (inactive) | 5.98 µM (inactive) | 7.43 µM (inactive) | 10.7 µM (inactive) | 10.3 µM (inactive) | 3.49 µM (inactive) | 11.6 µM (inactive) | 3.9 µM (inactive) | 4.62 µM (inactive) | 6.22 µM (inactive) | 8.05 µM (inactive) | 14.6 µM (inactive)
CCOC(=O)NC(Nc1ccc([N+](=O)[O-])cc1)(C(F)(F)F)C(F)(F)F | 33.9 µM (inactive) | 21.3 µM (inactive) | 85.9 µM (inactive) | > 100 µM (inactive) | 40.1 µM (inactive) | 75.5 µM (inactive) | 70.3 µM (inactive) | > 100 µM (inactive) | > 100 µM (inactive) | > 100 µM (inactive) | > 100 µM (inactive) | 75.3 µM (inactive) | 58.3 µM (inactive) | > 100 µM (inactive) | > 100 µM (inactive) | 34.2 µM (inactive) | 60.7 µM (inactive) | 31.1 µM (inactive) | > 100 µM (inactive)
Oc1cc(Br)cc2cc(Cl)cnc12 | 0.845 µM (active) | 3.3 µM (inactive) | 1.56 µM (inactive) | 3.13 µM (inactive) | 16.3 µM (inactive) | 3.99 µM (inactive) | 3.27 µM (inactive) | 22.3 µM (inactive) | 1.53 µM (inactive) | 17.8 µM (inactive) | 2.45 µM (inactive) | 0.635 µM (active) | 3.21 µM (inactive) | 3.11 µM (inactive) | 5.47 µM (inactive) | 1.11 µM (active) | 3.33 µM (inactive) | 23.4 µM (inactive) | 3.19 µM (inactive)
COc1cc(/C=C/C(=O)CC(=O)/C=C/c2cc(C)c(O)c(OC)c2)cc(C)c1O | > 100 µM (inactive) | > 100 µM (inactive) | > 100 µM (inactive) | > 100 µM (inactive) | > 100 µM (inactive) | > 100 µM (inactive) | > 100 µM (inactive) | > 100 µM (inactive) | 65.6 µM (inactive) | > 100 µM (inactive) | > 100 µM (inactive) | > 100 µM (inactive) | > 100 µM (inactive) | > 100 µM (inactive) | > 100 µM (inactive) | 6.82 µM (inactive) | 52.8 µM (inactive) | < 0.01 µM (active) | > 100 µM (inactive)
COc1cc2c(SCCN(C)C)nc3ccccc3c2c2ccccc12 | 2.13 µM (inactive) | 1.96 µM (inactive) | 1.87 µM (inactive) | 2.52 µM (inactive) | 1.94 µM (inactive) | 1.67 µM (inactive) | 1.77 µM (inactive) | 1.87 µM (inactive) | 0.281 µM (active) | 1.47 µM (inactive) | 2.14 µM (inactive) | 1.69 µM (inactive) | 2.7 µM (inactive) | 2.45 µM (inactive) | 5.46 µM (inactive) | 1.7 µM (inactive) | 1.66 µM (inactive) | 1.73 µM (inactive) | 1.74 µM (inactive)

Source: ChEMBL document CHEMBL1201862, “PubChem BioAssay data set” (2004)
